From US20160227776A1, “COMPOSITION CONTAINING ATTRACTANT OF NOXIOUS ARTHROPOD COMPRISING PLANT-DERIVED COMPONENT AND ANALOGUE OF SAME” (KYOYU AGRI CO., LTD., priority 2013, published 2016)

Assays:
Assay type in all cases: in vivo
[1] = test system: Frankliniella occidentalis; experiment: Test Example 1: water trap attraction test, single compounds; design: key: (captured treated − captured untreated)×100/total released per cage; settings: single compound, 30 adult females per cage, 24 hours
Description: (§1) Hexane solutions were prepared respectively containing single compounds selected from among p-anisaldehyde, benzaldehyde, ethyl nicotinate, geraniol, linalool, nerol, citronellol, methyl anthranilate, methyl benzoate, o-aminoacetophenone, o-anisidine, methyl m-aminobenzoate, methyl o-toluate and α-hexylcinnamaldehyde. Each single compound was prepared at five concentration levels consisting of 0.01 μg, 0.1 μg, 1 μg, 10 μg and 100 μg. After impregnating pieces of filter paper with these solutions, the filter paper was affixed on a plastic vial cap using adhesive tape and set up in a water trap containing a surfactant. After releasing 30 adult female Frankliniella occidentalis into an acrylic cage, the water trap containing the above-mentioned attractants was set up in the cage. 24 hours later, the number of Frankliniella occidentalis captured in the water trap was counted and the attraction rate was calculated using Equation 1.
(§2) Attraction rate=(No. of captured individuals in treatment−no. of captured individuals in untreatment)*100/(total no. released per cage) (1)

[2] = test system: Frankliniella occidentalis; experiment: Test Example 2: water trap attraction test, mixtures of two compounds; design: key: % of released insects: (treated catch − untreated catch)×100/total released; settings: single compound for comparison, 24 hours
Description: as §1, with “Mixed hexane” for “Hexane”, “two types of” for “single”, “Each single compound was prepared at five concentration levels consisting of 0.01 μg, 0.1 μg, 1 μg, 10 μg and 100 μg.” left out, “the mixed solution of the two types of compounds,” for “these solutions,”, “above-mentioned mixed” for “above-mentioned”, “1. In addition, hexane solutions were also prepared containing each of the single compounds at their respective prescribed concentrations for the sake of comparison, and those solutions were tested in the same manner.” for “1.”
as §2
(§3) In general, a synergistic attracting effect expected when mixing two given types of attractive compounds and using for treatment is determined from Colby's equation indicated with the following Equation 2: […]
(§4) X: attraction rate when treated with attractive compound A;
(§5) Y: attraction rate when treated with attractive compound B; and
(§6) E: attraction rate expected when treating by mixing attractive compound A and attractive compound B (expected attraction rate value).

[3] = test system: Frankliniella occidentalis; experiment: Test Example 3: water trap attraction test, mixtures of three compounds; design: scale not given here; settings: single compound for comparison, 24 hours
Description: Mixed hexane solutions were prepared containing three types of compounds selected from among p-anisaldehyde, benzaldehyde, ethyl nicotinate, geraniol, linalool, nerol, citronellol, methyl anthranilate, methyl benzoate, o-aminoacetophenone, o-anisidine, methyl m-aminobenzoate, methyl o-toluate and α-hexylcinnamaldehyde. […] After impregnating pieces of filter paper with the mixed solution of the three types of compounds, the filter paper was affixed on a plastic vial cap using adhesive tape and set up in a pan trap containing a surfactant. After releasing 30 adult female Frankliniella occidentalis into an acrylic cage, the water trap containing the above-mentioned mixed attractants was set up in the cage. 24 hours later, the number of Frankliniella occidentalis captured in the water trap was counted and the attraction rate was calculated using Equation 1. In addition, hexane solutions were also prepared containing each of the single agents at their respective prescribed concentrations for the sake of comparison, and those solutions were tested in the same manner.
In general, a synergistic attracting effect expected when mixing three given types of attractive compounds and using for treatment is determined from Colby's equation indicated with the following Equation 3: […]
as §4
(§7) Y: attraction rate when treated with attractive compound B;
Z: attraction rate when treated with attractive compound C; and
E: attraction rate expected when treating by mixing attractive compound A, attractive compound B and attractive compound C (expected attraction rate value).

Drosophila melanogaster = experiment: Test Example 5: water trap attraction test, mixtures of two compounds; design: key: % = (captured treated − captured untreated)×100/total released; settings: weight of each compound 100 μg; 20 adults per cage; 24 hours
Description: Mixed hexane solutions were prepared respectively containing two types of compounds selected from among p-anisaldehyde, benzaldehyde, ethyl nicotinate, geraniol, linalool, nerol, citronellol, methyl anthranilate, methyl benzoate, o-aminoacetophenone, o-anisidine, methyl m-aminobenzoate, methyl o-toluate and α-hexylcinnamaldehyde. The weight of each compound was adjusted to 100 μg. After impregnating pieces of filter paper with the mixed solution of the two types of compounds, the filter paper was affixed on a plastic vial cap using adhesive tape and set up in a water trap containing a surfactant. After releasing 20 adult Drosophila melanogaster into an acrylic cage, the water trap containing the above-mentioned mixed attractants was set up in the cage. 24 hours later, the number of D. melanogaster captured in the water trap was counted and the attraction rate was calculated using Equation 1. In addition, hexane solutions were also prepared containing each of the single compounds at their respective prescribed concentrations for the sake of comparison, and those solutions were tested in the same manner.
as §2, §3, §4, §5, §6

Thrips tabaci = experiment: Test Example 6: yellow sticky trap attraction test, mixtures of two compounds; design: key: % = (captured treated − captured untreated)×100/total released per cup; settings: weight of each compound 1 μg; 10 adults per cup; 24 hours
Description: Mixed hexane solutions were prepared respectively containing two types of compounds selected from among p-anisaldehyde, benzaldehyde, ethyl nicotinate, geraniol, linalool, nerol, citronellol, methyl anthranilate, methyl benzoate, o-aminoacetophenone, o-anisidine, methyl m-aminobenzoate, methyl o-toluate and α-hexylcinnamaldehyde. The weight of each compound was adjusted to 1 μg. After impregnating pieces of filter paper (3 mm^2) with the mixed solution of the two types of compounds, the filter paper was affixed on a yellow sticky trap (1 cm^2). After releasing 10 adult Thrips tabaci into a plastic cup (150 ml), the yellow sticky trap containing the above-mentioned mixed attractants was set up at the side of the plastic cup. 24 hours later, the number of T. tabaci captured in the yellow sticky trap was counted and the attraction rate was calculated using Equation 1. In addition, hexane solutions were also prepared containing each of the single compounds at their respective prescribed concentrations for the sake of comparison, and those solutions were tested in the same manner.
Attraction rate=(No. of captured individuals in treatment−no. of captured individuals in untreatment)*100/(total no. released per cup) (1)
as §3, §4, §7, §6

Tetranychus urticae = experiment: Test Example 4: plastic tube filter paper contact test, mixtures of two compounds; design: key: (treated − untreated contacts) ×100 / repetitions, %; settings: weight of each compound 1 μg; contact with filter paper within 10 minutes
Description: Mixed hexane solutions were prepared respectively containing two types of compounds selected from among p-anisaldehyde, benzaldehyde, ethyl nicotinate, geraniol, linalool, nerol, citronellol, methyl anthranilate, methyl benzoate, o-aminoacetophenone, o-anisidine, methyl m-aminobenzoate, methyl o-toluate and α-hexylcinnamaldehyde. The weight of each compound was adjusted to 1 μg. After impregnating pieces of filter paper (3 mm^2) with the mixed solution of the two types of compounds, the filter paper was set up at the head of a plastic tube (length of 9 cm, 5 mm^2 in diameters). An adult Tetranychus urticae was released into the end of plastic tube. Among 10 minutes, the number of T. urticae contacted the filter paper was counted and the attraction rate was calculated using Equation 1. In addition, hexane solutions were also prepared containing each of the single compounds at their respective prescribed concentrations for the sake of comparison, and those solutions were tested in the same manner.
Attraction rate=(No. of contacted individuals in treatment−no. of contacted individuals in untreatment)*100/(repetition) (1)
as §3, §4, §7, §6

SMILES | Attraction Rate ([1]; Amount 0.01 μg) | Attraction Rate ([1]; Amount 0.1 μg) | Attraction Rate ([1]; Amount 1 μg) | Attraction Rate ([1]; Amount 10 μg) | Attraction Rate ([1]; Amount 100 μg) | Attraction Rate ([2]; 100 μg) | Attraction Rate ([3]; 100 μg) | Attraction Rate (Drosophila melanogaster) | Attraction Rate (Thrips tabaci) | Attraction Rate (Tetranychus urticae) | Attraction Rate ([2]; 1 μg) | Attraction Rate ([3]; 1 μg) | Attraction Rate ([2]; 10 μg) | Attraction Rate ([3]; 10 μg)
COc1ccc(C=O)cc1 [p-anisaldehyde] | 17 | 23 | 23 | 30 | 36 | 36 | 36 | 3 | 10 |  |  |  |  | 
CC(C)=CCCC(C)CCO (centres unmarked) [Citronellol, citronellol] | 7 | 20 | 20 | 20 | 23 | 23 | 23 | 3 |  |  |  |  |  | 
COC(=O)c1ccccc1C [Methyl o-toluate, methyl o-toluate] | 3 | 13 | 17 | 20 | 23 | 23 | 23 | 3 |  | 15 |  |  |  | 
COc1ccccc1N [o-anisidine] | 6 | 10 | 20 | 30 | 40 | 40 | 40 | 8 | 0 | 15 |  |  |  | 
CCCCCCC(C=O)=Cc1ccccc1 [α-hexylcinnamaldehyde] | 13 | 27 | 33 | 30 | 30 |  |  | 8 | 7 |  | 33 | 33 |  | 
COC(=O)c1cccc(N)c1 [Methyl m-aminobenzoate, methyl m-aminobenzoate] | 3 | 10 | 27 | 33 | 40 | 40 | 40 | 8 | 0 |  |  |  |  | 
COC(=O)c1ccccc1N [Methyl anthranilate, methyl anthranilate] | 10 | 13 | 13 | 17 | 20 | 20 | 20 | 8 | 10 |  |  |  |  | 
CCOC(=O)c1cccnc1 [Ethyl nicotinate, ethyl nicotinate] | 13 | 27 | 30 | 36 | 43 | 43 | 43 | 3 | 10 | 15 |  |  |  | 
O=Cc1ccccc1 [Benzaldehyde, benzaldehyde] | 23 | 33 | 36 | 30 | 27 |  |  | 3 |  | 32 | 36 | 36 |  | 
CC(=O)c1ccccc1N [o-aminoacetophenone] | 3 | 17 | 23 | 30 | 36 | 36 | 36 | 13 |  | 38 |  |  |  | 
COC(=O)c1ccccc1 [Methyl benzoate, methyl benzoate] | 7 | 23 | 27 | 33 | 36 | 36 | 46 | 8 |  | 25 |  |  |  | 
C=CC(C)(O)CCC=C(C)C (centres unmarked) [Linalool, linalool] | 13 | 13 | 20 | 13 | 7 |  |  | 3 | 0 | 5 | 20 | 20 |  | 
CC(C)=CCC/C(C)=C\CO [Nerol, nerol] | 10 | 33 | 33 | 30 | 27 |  |  | 3 |  | 5 | 33 | 33 |  | 
CC(C)=CCC/C(C)=C/CO [Geraniol, geraniol] | 10 | 17 | 30 | 33 | 27 |  |  | 23 | 0 |  |  |  | 33 | 33
